US6642217B2, “Triterpenes having human antifungal and antiyeast activity” (Naturtek, LLC, priority 2000, dated 2003)

Tests used:
Microsporum canis [1] = assay: Agar dilution method, growth on Sabouraud dextrose agar slants; type: cell-based; set-up: key: +++: Maximum Fungal Growth; ++: Moderate Fungal Growth; +: Minimum Fungal Growth; +/−: Very little Fungal Growth; −: No Fungal Growth; conditions: 12th day after inoculation
Method: (§1) Agar dilution method. Sabouraud Dextrose Agar (Difco Laboratories, Michigan) was prepared according to the manufacturer's instructions. Five ml was dispensed in a 100×25 mm tube and autoclaved. To each tube containing 5.0 ml of liquid agar at 45° C., 0.5, 0.25, 0.12, or 0.063 ml of a DMSO solution of the compound was added to give the final indicated concentrations in Table 2. The agar was then solidified in slants. Fungal cultures were inoculated. The slants were incubated at 25-28° C. for 10-12 days, and the growth of the fungus was recorded every second day.

Microsporum gypseum = assay: as above; type: cell-based; set-up: key: +++: Maximum Fungal Growth; ++: Moderate Fungal Growth; +: Minimum Fungal Growth; +/−: Very little Fungal Growth; −: No Fungal Growth; conditions: 12th day after inoculation
Method: as §1

Pityrosporum ovale [2] = assay: as above; type: cell-based; set-up: key: +++: Maximum Fungal Growth; ++: Moderate Fungal Growth; +: Minimum Fungal Growth; +/−: Very little Fungal Growth; −: No Fungal Growth; conditions: 12th day after inoculation
Method: as §1

Trichophyton rubrum [3] = assay: as above; type: cell-based; set-up: key: +++: Maximum Fungal Growth; ++: Moderate Fungal Growth; +: Minimum Fungal Growth; +/−: Very little Fungal Growth; −: No Fungal Growth; conditions: 12th day after inoculation
Method: as §1

Microsporum audouinni [4] = assay: as above; type: cell-based, Microsporum audouinii; set-up: key: +++: Maximum Fungal Growth; ++: Moderate Fungal Growth; +: Minimum Fungal Growth; +/−: Very little Fungal Growth; −: No Fungal Growth; conditions: 12th day after inoculation
Method: as §1

Trichophyton tonsuran = assay: as above; type: cell-based, Trichophyton tonsurans; set-up: key: +++: Maximum Fungal Growth; ++: Moderate Fungal Growth; +: Minimum Fungal Growth; +/−: Very little Fungal Growth; −: No Fungal Growth; conditions: 12th day after inoculation
Method: as §1

[5] = tested on: Trichophyton mentagrophyte; assay: as above; type: cell-based, Trichophyton mentagrophytes; set-up: key to Fungal growth: +++: Maximum Fungal Growth; ++: Moderate Fungal Growth; +: Minimum Fungal Growth; +/−: Very little Fungal Growth; −: No Fungal Growth; conditions: 12th day after inoculation
Method: as §1

Epidermophyton floccosum [6] = assay: as above; type: cell-based; set-up: key to Fungal growth: +++: Maximum Fungal Growth; ++: Moderate Fungal Growth; +: Minimum Fungal Growth; +/−: Very little Fungal Growth; −: No Fungal Growth; conditions: 12th day after inoculation
Method: as §1

Microsporum audouinni [7] = assay: Direct addition method, solid compound in Sabouraud dextrose agar; type: cell-based, Microsporum audouinii; set-up: key to Fungal growth: +++: Maximum Fungal Growth; ++: Moderate Fungal Growth; +: Minimum Fungal Growth; +/−: Very little Fungal Growth; −: No Fungal Growth; conditions: 4 mg/mL of agar; 12th day after inoculation
Method: (§2) Direct addition method. Sabouraud dextrose agar was prepared according to the manufacturer's instructions and 5.0 ml was dispensed in each 100×25 mm tube. The tubes were autoclaved. To each tube containing 5.0 ml of liquid agar at 45° C., 20 mg of solid test compound was added, to give a final concentration of 4 mg/ml. The agar was solidified in slants. The fungal cultures were then innoculated. The slants were incubated at 25-28 ° C. for 10-12 days, and the growth of the fungus was recorded every second day. The results in Table 2 indicate growth at the 12th day of inoculation.

Pityrosporum ovale [8] = assay: Direct addition into the Pityrosporum agar; type: cell-based; set-up: key to Pityrosporum ovale growth: +++: Maximum Growth; ++: Moderate Growth; +: Minimum Growth; +/−: Very Little Growth; −: No Growth; conditions: 4 mg/ml in the agar; 18 hours after inoculation
Method: as §2, with “The slants were incubated at 25-28 ° C. for 10-12 days, and the growth of the fungus was recorded every second day. The results in Table 2 indicate growth at the 12th day of inoculation.” left out

Microsporum audouinii = assay: Summary of anti-fungal assays (direct addition, agar dilution, liquid culture); type: cell-based; conditions: stated in words (Tables 1a/1b, text to Table 5)
Method: (§3) This example summarizes the results of various other assays of the anti-fungal activity of betulin derivatives. Table 5 summarizes results using different assay methods—direct addition, agar dilution, and direct addition to liquid culture, as disclosed in the previous three Examples. In some cases, only one type of assay was done with a compound. In other cases, the compound was tested by multiple assays.

Trichophyton tonsurans = assay: as above; type: cell-based; conditions: stated in words (Tables 1a/1b, text to Table 5)
Method: as §3

Epidermophyton floccosum [9] = assay: Direct addition method, solid compound in Sabouraud dextrose agar; type: cell-based; set-up: key: +++: Maximum Fungal Growth; ++: Moderate Fungal Growth; +: Minimum Fungal Growth; +/−: Very little Fungal Growth; −: No Fungal Growth; conditions: 4 mg/mL of agar; 12th day after inoculation
Method: as §2

Microsporum canis [10] = assay: as above; type: cell-based; set-up: key: +++: Maximum Fungal Growth; ++: Moderate Fungal Growth; +: Minimum Fungal Growth; +/−: Very little Fungal Growth; −: No Fungal Growth; conditions: 4 mg/mL of agar; 12th day after inoculation
Method: as §2

Pityrosporum ovale [11] = assay: as above; type: cell-based; set-up: key: +++: Maximum Fungal Growth; ++: Moderate Fungal Growth; +: Minimum Fungal Growth; +/−: Very little Fungal Growth; −: No Fungal Growth; conditions: 4 mg/mL of agar; 12th day after inoculation
Method: as §2

Trichophyton rubrum [12] = assay: as above; type: cell-based; set-up: key: +++: Maximum Fungal Growth; ++: Moderate Fungal Growth; +: Minimum Fungal Growth; +/−: Very little Fungal Growth; −: No Fungal Growth; conditions: 4 mg/mL of agar; 12th day after inoculation
Method: as §2

CC1(C)CCC23CCC4(C)C(CCC5C6(C)CCC(OC(=O)CCCC(=O)O)C(C)(C)C6CCC54C)C2C1OC3 (stereo not shown) [Allobetulin-3-glutarate]
Fungal growth (Microsporum canis [1]; 12.5 μg/ml): + | Fungal growth (Microsporum canis [1]; 25 μg/ml): +/− | Fungal growth (Microsporum canis [1]; 50 μg/ml): − | Fungal growth (Microsporum canis [1]; 100 μg/ml): − | Fungal growth (Microsporum gypseum; 12.5 μg/ml): +++ | Fungal growth (Microsporum gypseum; 25 μg/ml): ++ | Fungal growth (Microsporum gypseum; 50 μg/ml): ++ | Fungal growth (Microsporum gypseum; 100 μg/ml): − | Fungal growth (Pityrosporum ovale [2]; 12.5 μg/ml): +++ | Fungal growth (Pityrosporum ovale [2]; 25 μg/ml): +++ | Fungal growth (Pityrosporum ovale [2]; 50 μg/ml): +| | Fungal growth (Pityrosporum ovale [2]; 100 μg/ml): − | Fungal growth (Trichophyton rubrum [3]; 12.5 μg/ml): ++ | Fungal growth (Trichophyton rubrum [3]; 25 μg/ml): ++ | Fungal growth (Trichophyton rubrum [3]; 50 μg/ml): + | Fungal growth (Trichophyton rubrum [3]; 100 μg/ml): − | Fungal growth (Microsporum audouinni [4]; 12.5 μg/ml): + | Fungal growth (Microsporum audouinni [4]; 25 μg/ml): +/− | Fungal growth (Microsporum audouinni [4]; 50 μg/ml): − | Fungal growth (Microsporum audouinni [4]; 100 μg/ml): − | Fungal growth (Trichophyton tonsuran; 12.5 μg/ml): + | Fungal growth (Trichophyton tonsuran; 25 μg/ml): +/− | Fungal growth (Trichophyton tonsuran; 50 μg/ml): − | Fungal growth (Trichophyton tonsuran; 100 μg/ml): − | Fungal growth ([5]; 12.5 μg/ml): ++ | Fungal growth ([5]; 25 μg/ml): + | Fungal growth ([5]; 50 μg/ml): + | Fungal growth ([5]; 100 μg/ml): − | Fungal growth (Epidermophyton floccosum [6]; 12.5 μg/ml): ++ | Fungal growth (Epidermophyton floccosum [6]; 25 μg/ml): + | Fungal growth (Epidermophyton floccosum [6]; 50 μg/ml): + | Fungal growth (Epidermophyton floccosum [6]; 100 μg/ml): − | Fungal growth (Microsporum audouinni [7]): + | Pityrosporum ovale growth (Pityrosporum ovale [8]): + | Active against Microsporum audouinii (Microsporum audouinii): Microsporum audouinii | Active against Trichophyton tonsurans (Trichophyton tonsurans): Trichophyton tonsurans | Fungal growth (Epidermophyton floccosum [9]): − | Fungal growth (Microsporum canis [10]): + | Fungal growth (Pityrosporum ovale [11]): − | Fungal growth (Trichophyton rubrum [12]): +

CC1(C)CCC23CC[C@@]4(C)C(CCC5[C@@]6(C)CCC(OC(=O)CCC(=O)O)C(C)(C)C6CC[C@]54C)C2C1OC3 (stereo partly shown) [Allobetulin-3-succinate]
Fungal growth (Microsporum canis [1]; 62.5 μg/ml): ++ | Fungal growth (Microsporum canis [1]; 125 μg/ml): ++ | Fungal growth (Microsporum canis [1]; 250 μg/ml): − | Fungal growth (Microsporum canis [1]; 500 μg/ml): − | Fungal growth (Microsporum gypseum; 62.5 μg/ml): +++ | Fungal growth (Microsporum gypseum; 125 μg/ml): ++ | Fungal growth (Microsporum gypseum; 250 μg/ml): + | Fungal growth (Microsporum gypseum; 500 μg/ml): − | Fungal growth (Pityrosporum ovale [2]; 62.5 μg/ml): +++ | Fungal growth (Pityrosporum ovale [2]; 125 μg/ml): +++ | Fungal growth (Pityrosporum ovale [2]; 250 μg/ml): +++ | Fungal growth (Pityrosporum ovale [2]; 500 μg/ml): + | Fungal growth (Trichophyton rubrum [3]; 62.5 μg/ml): ++ | Fungal growth (Trichophyton rubrum [3]; 125 μg/ml): ++ | Fungal growth (Trichophyton rubrum [3]; 250 μg/ml): − | Fungal growth (Trichophyton rubrum [3]; 500 μg/ml): − | Fungal growth (Microsporum audouinni [4]; 62.5 μg/ml): ++ | Fungal growth (Microsporum audouinni [4]; 125 μg/ml): ++ | Fungal growth (Microsporum audouinni [4]; 250 μg/ml): − | Fungal growth (Microsporum audouinni [4]; 500 μg/ml): − | Fungal growth (Trichophyton tonsuran; 62.5 μg/ml): ++ | Fungal growth (Trichophyton tonsuran; 125 μg/ml): ++ | Fungal growth (Trichophyton tonsuran; 250 μg/ml): + | Fungal growth (Trichophyton tonsuran; 500 μg/ml): − | Fungal growth ([5]; 62.5 μg/ml): ++ | Fungal growth ([5]; 125 μg/ml): + | Fungal growth ([5]; 250 μg/ml): +/− | Fungal growth ([5]; 500 μg/ml): − | Fungal growth (Epidermophyton floccosum [6]; 62.5 μg/ml): ++ | Fungal growth (Epidermophyton floccosum [6]; 125 μg/ml): ++ | Fungal growth (Epidermophyton floccosum [6]; 250 μg/ml): + | Fungal growth (Epidermophyton floccosum [6]; 500 μg/ml): − | Fungal growth (Microsporum audouinni [7]): + | Pityrosporum ovale growth (Pityrosporum ovale [8]): + | Active against Microsporum audouinii (Microsporum audouinii): Microsporum audouinii | Fungal growth (Epidermophyton floccosum [9]): − | Fungal growth (Microsporum canis [10]): + | Fungal growth (Pityrosporum ovale [11]): − | Fungal growth (Trichophyton rubrum [12]): +
